Assays:
Assay in all cases: relative viability (nuclei count vs DMSO), 5 days (fraction); higher = more cells survive
[1] = compound: CC1=CC(=NN1)NC2=CC(=NC(=N2)/C=C/C3=CC=CC=C3)N4CCN(CC4)C + CC(C)C[C@H](NC(=O)[C@H](Cc1ccccc1)NC(=O)c1cnccn1)B(O)O [Bortezomib] (partner 0.002 µM)
How it was run: (§1)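 Lung cancer cell lines in 1536-well plates were dosed by pin tool the day after seeding, either with one drug alone or with a fixed anchor-drug dose plus five library-drug doses (not always all listed) in √10 steps. After 5 days, cells were fixed and their nuclei stained in one step (final 0.05% Triton X-100, 1% formaldehyde, 1 ug/ml Hoechst), then counted on 4× images. Relative viability is the nuclei count in treated wells divided by that in vehicle wells. Values are medians of duplicate plates.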

Obatoclax + Trametinib = compound: COC1=CC(c2cc3ccccc3[nH]2)=N/C1=C\c1[nH]c(C)cc1C [Obatoclax] + CC(=O)Nc1cccc(-n2c(=O)n(C3CC3)c(=O)c3c(Nc4ccc(I)cc4F)n(C)c(=O)c(C)c32)c1 [Trametinib] (partner 0.02 µM)
How it was run: as §1

Obatoclax + Crizotinib = compound: COC1=CC(c2cc3ccccc3[nH]2)=N/C1=C\c1[nH]c(C)cc1C [Obatoclax] + C[C@@H](Oc1cc(-c2cnn(C3CCNCC3)c2)cnc1N)c1c(Cl)ccc(F)c1Cl [Crizotinib] (partner 1 µM)
How it was run: as §1

Obatoclax + AZD7762 = compound: COC1=CC(c2cc3ccccc3[nH]2)=N/C1=C\c1[nH]c(C)cc1C [Obatoclax] + NC(=O)Nc1cc(-c2cccc(F)c2)sc1C(=O)N[C@H]1CCCNC1 [AZD7762] (partner 0.2 µM)
How it was run: as §1

Cell Line | relative viability ([1]; first compound 0.08 µM) | relative viability ([1]; first compound 0.253 µM) | relative viability ([1]; first compound 0.8 µM) | relative viability ([1]; first compound 2.53 µM) | relative viability ([1]; first compound 8 µM) | relative viability (Obatoclax + Trametinib; first compound 0.01 µM) | relative viability (Obatoclax + Trametinib; first compound 0.03162 µM) | relative viability (Obatoclax + Trametinib; first compound 0.1 µM) | relative viability (Obatoclax + Trametinib; first compound 0.3162 µM) | relative viability (Obatoclax + Trametinib; first compound 1 µM) | relative viability (Obatoclax + Crizotinib; first compound 0.01 µM) | relative viability (Obatoclax + Crizotinib; first compound 0.03162 µM) | relative viability (Obatoclax + Crizotinib; first compound 0.1 µM) | relative viability (Obatoclax + Crizotinib; first compound 0.3162 µM) | relative viability (Obatoclax + Crizotinib; first compound 1 µM) | relative viability (Obatoclax + AZD7762; first compound 0.01 µM) | relative viability (Obatoclax + AZD7762; first compound 0.03162 µM) | relative viability (Obatoclax + AZD7762; first compound 0.1 µM) | relative viability (Obatoclax + AZD7762; first compound 0.3162 µM) | relative viability (Obatoclax + AZD7762; first compound 1 µM)
NCI-H838 | 0.759 | 0.802 | 0.705 | 0.168 | 0.0832 | 0.548 | 0.559 | 0.346 | 0.493 | 0.248 | 0.848 | 0.959 | 0.827 | 0.77 | 0.777 | 0.873 | 0.933 | 0.776 | 0.889 | 0.656
NCI-H1355 | 1.16 | 1.17 | 1.16 | 0.885 | 0.168 | 0.403 | 0.462 | 0.439 | 0.35 | 0.454 | 1.13 | 0.93 | 1.04 | 1.03 | 0.915 | 0.698 | 0.709 | 0.613 | 0.735 | 0.647
NCI-H1437 | 0.621 | 0.554 | 0.656 | 0.247 | 0.0909 | 0.512 | 0.471 | 0.642 | 0.498 | 0.359 | 0.804 | 0.857 | 0.861 | 0.896 | 1.03 | 1.12 | 1.16 | 1.03 | 1.08 | 0.895
NCI-H1651 | 0.946 | 0.892 | 0.865 | 0.876 | 0.448 | 0.847 | 0.811 | 0.846 | 0.845 | 0.836 | 0.906 | 0.831 | 0.863 | 0.89 | 0.891 | 0.488 | 0.4 | 0.421 | 0.431 | 0.439
NCI-H1666 | 0.892 | 0.925 | 0.872 | 0.55 | 0.215 | 0.753 | 0.849 | 0.949 | 0.805 | 0.637 | 1.08 | 1.04 | 0.867 | 0.284 | 0.265 | 0.959 | 0.823 | 0.789 | 0.815 | 0.581
NCI-H1734 | 0.814 | 0.999 | 0.731 | 0.234 | 0.13 | 0.636 | 0.744 | 0.688 | 0.681 | 0.689 | 0.665 | 0.701 |  | 0.625 | 0.447 | 0.513 | 0.499 | 0.456 | 0.472 | 0.238
NCI-H1755 | 0.913 | 1.01 | 0.956 | 0.63 | 0.195 | 0.673 | 0.769 | 0.77 | 0.752 | 0.799 | 0.846 | 0.833 | 0.813 | 0.925 | 0.867 | 0.387 | 0.468 | 0.381 | 0.457 | 0.423
NCI-H1792 | 0.863 | 0.999 | 0.919 | 0.84 | 0.0942 | 0.365 | 0.302 | 0.417 | 0.509 | 0.411 | 0.999 | 0.948 |  | 0.999 | 0.99 | 0.732 | 0.482 | 0.513 | 0.527 | 0.213
NCI-H1915 | 1.01 | 1.04 | 1.01 | 0.555 | 0.54 | 0.296 | 0.285 | 0.328 | 0.284 | 0.315 | 0.898 | 0.835 | 0.864 | 0.877 | 0.901 | 0.697 | 0.573 | 0.648 | 0.752 | 0.562
NCI-H1975 | 0.403 | 0.408 | 0.31 | 0.159 | 0.109 | 0.407 | 0.32 | 0.213 | 0.352 | 0.206 | 0.969 | 0.897 | 0.962 | 0.79 | 0.518 | 0.744 | 0.654 |  | 0.728 | 0.756
NCI-H1993 | 1.08 |  | 1.2 | 0.781 | 0.391 | 0.553 | 0.632 | 0.574 | 0.462 | 0.72 | 0.922 | 0.916 | 1.02 | 0.932 | 0.986 | 0.769 | 0.789 | 0.898 | 0.818 | 0.536
NCI-H2085 | 1.06 | 1.05 | 1.07 | 0.651 | 0.333 | 0.671 | 0.598 | 0.582 | 0.405 | 0.377 | 0.961 | 0.865 | 0.791 | 0.798 | 0.334 | 0.932 | 0.991 | 0.952 | 0.621 | 0.299
NCI-H2087 | 0.792 | 1.03 | 0.818 | 0.648 | 0.11 | 0.2 | 0.204 | 0.22 | 0.145 | 0.122 | 0.818 | 0.864 | 0.83 | 0.768 | 0.294 | 1.19 | 1.37 | 1.15 | 1.21 | 0.9
NCI-H2126 | 1.07 | 1.14 | 1.19 | 1.09 | 1.02 | 0.57 | 0.493 | 0.526 | 0.55 | 0.546 | 1.06 | 0.987 | 0.952 | 1.02 | 0.965 | 1.08 | 0.951 | 1.05 | 1.06 | 0.974
NCI-H2347 | 0.829 | 1.21 | 1.04 | 1.32 | 0.461 | 0.312 | 0.305 | 0.27 | 0.237 | 0.277 | 0.738 | 0.671 | 0.556 | 0.742 | 0.382 | 0.687 | 0.836 | 0.777 | 0.695 | 0.869
NCI-H2405 | 0.963 | 0.819 | 1.02 | 0.865 | 0.958 | 0.6 | 0.746 |  | 0.741 | 0.861 | 0.821 | 0.832 |  | 0.826 | 0.867 | 0.726 | 0.857 |  | 0.924 | 0.8

— the supplement of paper PMC10307832
